Results: paper PMC12207590, “Substrate Specificity of the Organic Cation Transporters MATE1 and MATE2K and Functional Overlap with OCT1 and OCT2” (Journal of Medicinal Chemistry, 2025)
Where two headings read alike, the source gives them in different places.

Key:
MATE2K = MATE2K (Homo sapiens, UniProt Q86VL8); assay: Uptake ratio in MATE2K-overexpressing HEK293 cells vs empty vector (2.5 μM, 1 min, HPLC-MS/MS); format: cell-based
MATE1 = molecular target: T1, MATE1 (Homo sapiens, UniProt Q96FL8); assay: Uptake ratio in MATE1-overexpressing HEK293 cells vs empty vector (2.5 μM, 1 min, HPLC-MS/MS); format: cell-based
T1 sequence (Q96FL8 1-570): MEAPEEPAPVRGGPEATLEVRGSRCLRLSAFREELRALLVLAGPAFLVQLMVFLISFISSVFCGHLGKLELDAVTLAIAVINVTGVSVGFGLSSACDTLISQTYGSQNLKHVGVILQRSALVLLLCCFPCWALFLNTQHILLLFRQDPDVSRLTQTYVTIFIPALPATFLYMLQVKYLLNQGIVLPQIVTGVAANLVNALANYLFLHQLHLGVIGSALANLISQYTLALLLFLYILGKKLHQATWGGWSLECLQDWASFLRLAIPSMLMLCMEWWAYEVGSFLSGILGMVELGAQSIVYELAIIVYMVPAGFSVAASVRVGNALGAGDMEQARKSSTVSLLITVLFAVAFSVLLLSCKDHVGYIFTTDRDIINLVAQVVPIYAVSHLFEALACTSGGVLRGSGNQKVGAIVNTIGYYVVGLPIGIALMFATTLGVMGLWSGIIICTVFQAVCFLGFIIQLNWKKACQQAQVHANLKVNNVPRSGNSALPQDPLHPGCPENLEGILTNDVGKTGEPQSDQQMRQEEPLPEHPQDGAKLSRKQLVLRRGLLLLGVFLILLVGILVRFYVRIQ

[1] = fold uptake over empty vector, 2.5 μM, 1 min
[2] = mean ratio of uptake in MATE2K-overexpressing HEK293 cells vs empty vector, 2.5 μM, 1 min
[3] = mean ratio of uptake in MATE1-overexpressing HEK293 cells vs empty vector, 2.5 μM, 1 min
[4] = uptake ratio MATE2K-overexpressing vs empty-vector HEK293 cells, 2.5 μM, 1 min, mean
[5] = uptake ratio MATE1-overexpressing vs empty-vector HEK293 cells, 2.5 μM, 1 min, mean

Sequence of MATE2K (Q86VL8 1-566 isoform Q86VL8-3): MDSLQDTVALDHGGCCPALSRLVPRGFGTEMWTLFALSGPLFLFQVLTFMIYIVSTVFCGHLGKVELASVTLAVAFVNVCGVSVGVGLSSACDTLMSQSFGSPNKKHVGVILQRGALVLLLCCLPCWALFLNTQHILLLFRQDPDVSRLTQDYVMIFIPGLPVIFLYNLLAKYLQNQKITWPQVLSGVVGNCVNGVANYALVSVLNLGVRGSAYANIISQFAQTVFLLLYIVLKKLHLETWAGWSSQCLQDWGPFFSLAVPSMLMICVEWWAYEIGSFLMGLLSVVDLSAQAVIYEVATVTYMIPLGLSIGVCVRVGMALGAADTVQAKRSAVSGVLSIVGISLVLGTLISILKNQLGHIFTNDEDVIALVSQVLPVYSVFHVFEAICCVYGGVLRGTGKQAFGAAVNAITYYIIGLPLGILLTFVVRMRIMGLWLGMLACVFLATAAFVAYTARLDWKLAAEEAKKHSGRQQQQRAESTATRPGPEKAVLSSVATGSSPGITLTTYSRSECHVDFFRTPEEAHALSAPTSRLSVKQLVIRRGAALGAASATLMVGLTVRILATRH

CN(C)C(N)=NCCC[C@H](N)C(=O)O [NN-Dimethylarginine]
MATE2K ratio (MATE2K; [1]): 0.93 | MATE1 ratio (MATE1; [1]): 0.97

CC(C[N+](C)(C)C)OC(N)=O (stereo not drawn) [Bethanechol]
MATE2K ratio (MATE2K; [1]): 0.97 | MATE2 (uptake ratio) (MATE2K; [2]): 0.97 | MATE1 ratio (MATE1; [1]): 0.23 | MATE1 (uptake ratio) (MATE1; [3]): 0.23

N=C(Nc1ccccc1)Nc1ccccc1 [1,3-Diphenylguanidine]
MATE2 (uptake ratio) (MATE2K): 1.27 | MATE2K ratio (MATE2K): 1.27 | MATE1 (uptake ratio) (MATE1): 1.53 | MATE1 ratio (MATE1): 1.53

CC(C)(C)NCC(O)COc1nsnc1N1CCOCC1 (stereo in doubt) [Timolol (R)]
MATE2 (MATE2K; [4]): 0.96 | MATE1 (MATE1; [5]): 0.94

CN(C)C(=O)Oc1cc(OC(=O)N(C)C)cc(C(O)CNC(C)(C)C)c1 (stereo not drawn) [Bambuterol]
MATE2K ratio (MATE2K; [1]): 1.21 | MATE2 (uptake ratio) (MATE2K; [2]): 1.21 | MATE1 ratio (MATE1; [1]): 1.52 | MATE1 (uptake ratio) (MATE1; [3]): 1.52

CCCCNC(=N)NC(=N)N [Buformin]
MATE2 (uptake ratio) (MATE2K): 2.37 | MATE2K ratio (MATE2K): 2.37 | MATE1 (uptake ratio) (MATE1): 24.8 | MATE1 ratio (MATE1): 24.80

CC(=O)O[C@H]1C[C@@H]2CC[C@@H]3[C@H](CC[C@@]4(C)[C@H]3C[C@H]([N+]3(C)CCCCC3)[C@@H]4OC(C)=O)[C@@]2(C)C[C@@H]1N1CCCCC1 [Vecuronium]
MATE2 (MATE2K): 4.72 | MATE1 (MATE1): 8.32

NC(=O)OCC(COC(N)=O)c1ccccc1 [Felbamate]
MATE2K ratio (MATE2K; [1]): 0.94 | MATE1 ratio (MATE1; [1]): 0.97

OC(c1ccccc1)(c1ccccc1)C12CC[N+](CCOCc3ccccc3)(CC1)CC2 [Umeclidinium]
MATE2 (MATE2K; [4]): 1.67 | MATE1 (MATE1; [5]): 4.54

NCCCNCCCCNCCCN [Spermine]
MATE2K ratio (MATE2K; [1]): 1.25 | MATE2 (MATE2K; [4]): 1.25 | MATE1 ratio (MATE1; [1]): 1.13 | MATE1 (MATE1; [5]): 1.13

Cc1cc(C(C)(C)C)cc(C)c1CC1=NCCN1 [Xylometazoline]
MATE1 (MATE1): 1.55

Clc1cccc(Cl)c1N=C1NCCN1 [Clonidine]
MATE2K ratio (MATE2K; [1]): 1.17 | MATE2 (uptake ratio) (MATE2K; [2]): 1.17 | MATE1 ratio (MATE1; [1]): 1.11 | MATE1 (uptake ratio) (MATE1; [3]): 1.11

Cc1ncc(C[n+]2csc(CCOP(=O)(O)O)c2C)c(N)n1 [Thiamine monophosphate]
MATE2 (MATE2K; [4]): 0.89 | MATE1 (MATE1; [5]): 1.05

COc1ccc2[nH]c3c(c2c1)CCNC3 [Pinoline]
MATE2K ratio (MATE2K): 1.21 | MATE1 ratio (MATE1): 1.28

CNCCCC12CCC(c3ccccc31)c1ccccc12 [Maprotiline]
MATE2K ratio (MATE2K; [1]): 1.04 | MATE1 ratio (MATE1; [1]): 1.17

OCCN(CCO)c1nc(N2CCCCC2)c2nc(N(CCO)CCO)nc(N3CCCCC3)c2n1 [Dipyridamole]
MATE2K ratio (MATE2K; [1]): 1.13 | MATE1 ratio (MATE1; [1]): 1.11

C=CCOc1ccccc1OCC(O)CNC(C)C (stereo not drawn) [Oxprenolol]
MATE2K ratio (MATE2K; [1]): 1.20 | MATE1 ratio (MATE1; [1]): 1.05

OCCc1ccccc1
MATE2K ratio (MATE2K; [1]): 1.20 | MATE1 ratio (MATE1; [1]): 1.39

NCCc1cccc(O)c1 [m-Tyramine]
MATE2K ratio (MATE2K; [1]): 1.31 | MATE1 ratio (MATE1; [1]): 8.90

CC(CN(C)C)CN1c2ccccc2CCc2ccccc21 (stereo not drawn) [Trimipramine]
MATE2 (MATE2K; [4]): 1.2 | MATE1 (MATE1; [5]): 1.19

c1cnc2cc3c(cc2n1)[C@@H]1CNC[C@H]3C1 [Varenicline]
MATE2K ratio in this study (MATE2K; Table S1, 2.5 μM, 1 min): 1.30 | MATE2 (MATE2K; [4]): 1.3 | MATE1 ratio in this study (MATE1; Table S1, 2.5 μM, 1 min): 1.20 | MATE1 (MATE1; [5]): 1.2

O=C(NCC1CCCCN1)c1cc(OCC(F)(F)F)ccc1OCC(F)(F)F (stereo not drawn) [Flecainide]
MATE2K ratio (MATE2K; [1]): 1.19 | MATE1 ratio (MATE1; [1]): 1.13

COc1ccc(CC2c3cc(OC)c(OC)cc3CC[N+]2(C)CCC(=O)OCCCCCOC(=O)CC[N+]2(C)CCc3cc(OC)c(OC)cc3C2Cc2ccc(OC)c(OC)c2)cc1OC (stereo not drawn) [Atracurium]
MATE2K ratio (MATE2K; [1]): 1.10 | MATE2 (uptake ratio) (MATE2K; [2]): 1.1 | MATE1 ratio (MATE1; [1]): 1.13 | MATE1 (uptake ratio) (MATE1; [3]): 1.13

NCCc1ccccc1 [2-Phenylethylamine]
MATE2K ratio (MATE2K; [1]): 1.43 | MATE2 (uptake ratio) (MATE2K; [2]): 1.43 | MATE1 ratio (MATE1; [1]): 1.39 | MATE1 (uptake ratio) (MATE1; [3]): 1.39

CNCCc1ccccc1 [N-Methyl-2-phenylethylamine]
MATE2K ratio (MATE2K; [1]): 1.50 | MATE1 ratio (MATE1; [1]): 1.27

CCc1nn(CCCN2CCN(c3cccc(Cl)c3)CC2)c(=O)n1CCOc1ccccc1 [Nefazodone]
MATE2K ratio (MATE2K; [1]): 1.24 | MATE1 ratio (MATE1; [1]): 1.34

N[C@@H](Cc1ccc(O)c(O)c1)C(=O)O [Levodopa]
MATE2K ratio (MATE2K; [1]): 1.01 | MATE1 ratio (MATE1; [1]): 0.71

CNC[C@H](O)c1ccc(O)c(O)c1 [Epinephrine (-), Epinephrine]
MATE2K ratio (MATE2K; [1]): 3.98 | MATE1 ratio (MATE1; [1]): 37.78

CC(C)C(=O)O[C@H](CC(=O)[O-])C[N+](C)(C)C [Isobutyrylcarnitine]
MATE2K ratio (MATE2K; [1]): 1.35 | MATE1 ratio (MATE1; [1]): 1.40

CC(C)(C)NCC(O)c1ccc(O)c(O)c1 (stereo not drawn) [Colterol]
MATE2K ratio (MATE2K; [1]): 5.80 | MATE2 (uptake ratio) (MATE2K; [2]): 5.8 | MATE1 ratio (MATE1; [1]): 10.79 | MATE1 (uptake ratio) (MATE1; [3]): 10.79

CN(C)CCCN1c2ccccc2Sc2ccc(Cl)cc21 [Chlorpromazine]
MATE2K ratio (MATE2K; [1]): 1.33 | MATE2 (uptake ratio) (MATE2K; [2]): 1.33 | MATE1 ratio (MATE1; [1]): 1.42 | MATE1 (uptake ratio) (MATE1; [3]): 1.42

CCCCC[C@H](O)/C=C/[C@H]1[C@H](O)CC(=O)[C@@H]1C/C=C\CCCC(=O)O [Prostaglandin E2]
MATE2 (MATE2K): 1.21 | MATE2K ratio (MATE2K): 1.21 | MATE1 (MATE1): 1.35 | MATE1 ratio (MATE1): 1.35

CC(C)[N+](C)(CCOC(=O)C1c2ccccc2Oc2ccccc21)C(C)C [Propantheline]
MATE2K ratio (MATE2K; [1]): 5.77 | MATE2 (MATE2K; [4]): 5.77 | MATE1 ratio (MATE1; [1]): 10.16 | MATE1 (MATE1; [5]): 10.16

C[N+]1(C)CCN(c2ccccc2)CC1 [Dimethylphenylpiperazinium]
MATE2K ratio (MATE2K): 4.30 | MATE1 ratio (MATE1): 29.06

CCC(C)C(=O)OC(CC(=O)[O-])C[N+](C)(C)C (stereo not drawn) [2-Methylbutyrylcarnitine]
MATE2K ratio (MATE2K; [1]): 1.24 | MATE2 (uptake ratio) (MATE2K; [2]): 1.24 | MATE1 ratio (MATE1; [1]): 0.61 | MATE1 (uptake ratio) (MATE1; [3]): 0.61

C[N+](C)(C)C[C@@H](CC(=O)[O-])OC(=O)CCC(=O)O [Succinylcarnitine]
MATE2K ratio (MATE2K; [1]): 1.38 | MATE2 (MATE2K; [4]): 1.38 | MATE1 ratio (MATE1; [1]): 0.54 | MATE1 (MATE1; [5]): 0.54

COc1nc(C)nc(Cl)c1N=C1NCCN1 [Moxonidine]
MATE2K ratio (MATE2K; [1]): 1.78 | MATE1 ratio (MATE1; [1]): 2.02

COc1ccc([C@H](CN(C)C)C2(O)CCCCC2)cc1 [Venlafaxine (R)]
MATE2 (MATE2K): 1.36 | MATE1 (MATE1): 1.14

CCN1CCC[C@H]1CNC(=O)c1cc(S(N)(=O)=O)ccc1OC [Sulpiride (S)]
MATE2 (MATE2K): 18.54

Cc1ccc(O)c(C(CCN(C(C)C)C(C)C)c2ccccc2)c1 (stereo in doubt) [Tolterodine (S)]
MATE1 (MATE1): 1.16

Cc1ccc(O)c([C@H](CCN(C(C)C)C(C)C)c2ccccc2)c1 [Tolterodine (R)]
MATE2 (MATE2K): 1.06

NCCc1c[nH]c2ccccc12 [Tryptamine]
MATE1 (MATE1): 2.21

CCOc1ccccc1OCCN[C@H](C)Cc1ccc(OC)c(S(N)(=O)=O)c1 [Tamsulosin]
MATE1 (MATE1; [5]): 1.4

NC(=O)[C@@H]1CCCN1C(=O)[C@H](Cc1cnc[nH]1)NC(=O)[C@@H]1CCC(=O)N1 [Thyrotropin-Releasing-Hormon]
MATE1 (MATE1; [5]): 1.71

C#CCN(C)[C@H](C)Cc1ccccc1 [Selegiline (S), Selegiline]
MATE2 (MATE2K): 1.08

NCCNCCNCCN [Triethylentetramine]
MATE1 (MATE1; [5]): 0.65

NCCS(=O)(=O)O [Taurine]
MATE2 (MATE2K; [4]): 1.2
